Measurements reported in ChEMBL document CHEMBL1201862, “PubChem BioAssay data set” (2004).
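48-hour exposure; five concentrations; linearly interpolated endpoints. Abbreviation: GI50, concentration required for 50% inhibition of growth.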 The source made the active and inactive calls. Rule as the data show it: active = GI50 up to about 1.1 µM and inactive = higher.

How the values were obtained:
Assay in all cases: inhibition of tumour cell growth, NCI panel, 48 h
OVCAR-5 = system: OVCAR-5
IGROV-1 = system: IGROV-1
SR = system: SR
A549 = system: A549
OVCAR-4 = system: OVCAR-4
PC-3 = system: PC-3
CCRF-CEM = system: CCRF-CEM
A498 = system: A498
OVCAR-3 = system: OVCAR-3
MCF7 = system: MCF7
T47D = system: T47D
RXF 393 = system: RXF 393
Malme-3M = system: Malme-3M
SK-OV-3 = system: SK-OV-3
HCC 2998 = system: HCC 2998
MDA-MB-435 = system: MDA-MB-435
UACC-257 = system: UACC-257
CAKI-1 = system: CAKI-1
NCI/ADR-RES = system: NCI/ADR-RES
UACC-62 = system: UACC-62
DU-145 = system: DU-145
SK-MEL-28 = system: SK-MEL-28
KM12 = system: KM12
SF-295 = system: SF-295
UO-31 = system: UO-31
SN12C = system: SN12C
786-0 = system: 786-0
ACHN = system: ACHN
MOLT-4 = system: MOLT-4
SNB-75 = system: SNB-75
U-251 = system: U-251
NCI-H23 = system: NCI-H23
OVCAR-8 = system: OVCAR-8
SW-620 = system: SW-620
SF-268 = system: SF-268
K562 = system: K562
HL-60 = system: HL-60
HCT-116 = system: HCT-116
HOP-92 = system: HOP-92
NCI-H226 = system: NCI-H226
NCI-H460 = system: NCI-H460
LOX IMVI = system: LOX IMVI
HT-29 = system: HT-29
BT-549 = system: BT-549
NCI-H522 = system: NCI-H522
MDA-MB-231 = system: MDA-MB-231
M14 = system: M14
Hs-578T = system: Hs-578T
COLO 205 = system: COLO 205
EKVX = system: EKVX
SF-539 = system: SF-539
SK-MEL-5 = system: SK-MEL-5
HOP-62 = system: HOP-62
SK-MEL-2 = system: SK-MEL-2
TK-10 = system: TK-10
HCT-15 = system: HCT-15
SNB-19 = system: SNB-19
RPMI-8226 = system: RPMI-8226
MDA-N = system: MDA-N

Compound: Brc1ccc2[nH]cc(-c3csc(-c4ccccn4)n3)c2c1
- GI50 (OVCAR-5): > 51.1 µM (inactive)
- GI50 (IGROV-1): 23 µM (inactive)
- GI50 (SR): 15.4 µM (inactive)
- GI50 (A549): 14.5 µM (inactive)
- GI50 (OVCAR-4): 14.4 µM (inactive)
- GI50 (PC-3): 14.2 µM (inactive)
- GI50 (CCRF-CEM): 13.2 µM (inactive)
- GI50 (A498): 3.39 µM (inactive)
- GI50 (OVCAR-3): 9.31 µM (inactive)
- GI50 (MCF7): 10.3 µM (inactive)
- GI50 (T47D): 10.7 µM (inactive)
- GI50 (RXF 393): 6.03 µM (inactive)
- GI50 (Malme-3M): 22.1 µM (inactive)
- GI50 (SK-OV-3): 33 µM (inactive)
- GI50 (HCC 2998): 8.75 µM (inactive)
- GI50 (MDA-MB-435): 41.8 µM (inactive)
- GI50 (UACC-257): 23 µM (inactive)
- GI50 (CAKI-1): 17.1 µM (inactive)
- GI50 (NCI/ADR-RES): > 100 µM (inactive)
- GI50 (UACC-62): 8.18 µM (inactive)
- GI50 (DU-145): 17.9 µM (inactive)
- GI50 (SK-MEL-28): 53.1 µM (inactive)
- GI50 (KM12): 9.16 µM (inactive)
- GI50 (SF-295): 6.68 µM (inactive)
- GI50 (UO-31): 59.7 µM (inactive)
- GI50 (SN12C): 14.4 µM (inactive)
- GI50 (786-0): 7.93 µM (inactive)
- GI50 (ACHN): 5.85 µM (inactive)
- GI50 (MOLT-4): 5.28 µM (inactive)
- GI50 (SNB-75): 16.9 µM (inactive)
- GI50 (U-251): 13.5 µM (inactive)
- GI50 (NCI-H23): 47.4 µM (inactive)
- GI50 (OVCAR-8): 26.9 µM (inactive)
- GI50 (SW-620): 18.4 µM (inactive)
- GI50 (SF-268): 30.6 µM (inactive)
- GI50 (K562): 5.38 µM (inactive)
- GI50 (HL-60): 26.5 µM (inactive)
- GI50 (HCT-116): 15.1 µM (inactive)
- GI50 (HOP-92): 20.8 µM (inactive)
- GI50 (NCI-H226): 11.6 µM (inactive)
- GI50 (NCI-H460): 6.59 µM (inactive)
- GI50 (LOX IMVI): 8.69 µM (inactive)
- GI50 (HT-29): 5.12 µM (inactive)
- GI50 (BT-549): > 89.3 µM (inactive)
- GI50 (NCI-H522): 8.95 µM (inactive)
- GI50 (MDA-MB-231): 22.9 µM (inactive)
- GI50 (M14): 22.2 µM (inactive)
- GI50 (Hs-578T): > 75.2 µM (inactive)
- GI50 (COLO 205): 13.4 µM (inactive)
- GI50 (EKVX): 9.44 µM (inactive)
- GI50 (SF-539): 25.3 µM (inactive)
- GI50 (SK-MEL-5): 16.4 µM (inactive)
- GI50 (HOP-62): 15.8 µM (inactive)
- GI50 (SK-MEL-2): 44.8 µM (inactive)
- GI50 (TK-10): 24.2 µM (inactive)
- GI50 (HCT-15): 16.9 µM
- GI50 (SNB-19): 35 µM (inactive)
- GI50 (RPMI-8226): 7.8 µM (inactive)
- GI50 (MDA-N): 27.6 µM (inactive)

Compound: COc1cccc(CCN2CCN(CCCc3ccccc3)CC2)c1
- GI50 (OVCAR-5): > 100 µM (inactive)
- GI50 (IGROV-1): > 100 µM (inactive)
- GI50 (SR): 30.5 µM (inactive)
- GI50 (A549): 94.6 µM (inactive)
- GI50 (OVCAR-4): 51.1 µM (inactive)
- GI50 (PC-3): > 100 µM (inactive)
- GI50 (CCRF-CEM): > 100 µM (inactive)
- GI50 (A498): 61 µM (inactive)
- GI50 (OVCAR-3): 64.6 µM (inactive)
- GI50 (MCF7): 44.1 µM (inactive)
- GI50 (T47D): 43.6 µM (inactive)
- GI50 (RXF 393): 71 µM (inactive)
- GI50 (Malme-3M): 55.5 µM (inactive)
- GI50 (SK-OV-3): 88.1 µM (inactive)
- GI50 (HCC 2998): 58.3 µM (inactive)
- GI50 (MDA-MB-435): 85.9 µM (inactive)
- GI50 (UACC-257): > 100 µM (inactive)
- GI50 (CAKI-1): 67.3 µM (inactive)
- GI50 (NCI/ADR-RES): > 100 µM (inactive)
- GI50 (UACC-62): > 100 µM (inactive)
- GI50 (DU-145): > 100 µM (inactive)
- GI50 (SK-MEL-28): > 100 µM (inactive)
- GI50 (KM12): 51.8 µM (inactive)
- GI50 (SF-295): 43 µM (inactive)
- GI50 (UO-31): 51.1 µM (inactive)
- GI50 (SN12C): > 100 µM (inactive)
- GI50 (786-0): 63.8 µM (inactive)
- GI50 (ACHN): > 100 µM (inactive)
- GI50 (MOLT-4): 92.3 µM (inactive)
- GI50 (SNB-75): 63.1 µM (inactive)
- GI50 (U-251): > 100 µM (inactive)
- GI50 (NCI-H23): 53 µM (inactive)
- GI50 (OVCAR-8): > 100 µM (inactive)
- GI50 (SW-620): > 100 µM (inactive)
- GI50 (SF-268): > 100 µM (inactive)
- GI50 (K562): 32.1 µM (inactive)
- GI50 (HL-60): 61.4 µM (inactive)
- GI50 (HCT-116): 53.7 µM (inactive)
- GI50 (HOP-92): 8.41 µM (inactive)
- GI50 (NCI-H226): 71 µM (inactive)
- GI50 (NCI-H460): 78 µM (inactive)
- GI50 (LOX IMVI): 55.1 µM (inactive)
- GI50 (HT-29): 31.8 µM (inactive)
- GI50 (BT-549): 40.1 µM (inactive)
- GI50 (NCI-H522): 22.6 µM (inactive)
- GI50 (MDA-MB-231): > 100 µM (inactive)
- GI50 (M14): 21.2 µM (inactive)
- GI50 (Hs-578T): > 100 µM (inactive)
- GI50 (COLO 205): 21.1 µM (inactive)
- GI50 (EKVX): > 100 µM (inactive)
- GI50 (SF-539): > 100 µM (inactive)
- GI50 (SK-MEL-5): 19.4 µM (inactive)
- GI50 (HOP-62): 79.1 µM (inactive)
- GI50 (SK-MEL-2): > 100 µM (inactive)
- GI50 (TK-10): > 100 µM (inactive)
- GI50 (HCT-15): 31.7 µM
- GI50 (SNB-19): > 100 µM (inactive)
- GI50 (RPMI-8226): 32.6 µM (inactive)
- GI50 (MDA-N): > 100 µM (inactive)
